Experimental data: patent US7361686B2, “Compounds for the treatment of metabolic disorders” (Wellstat Therapeutics Corporation, priority 2003, dated 2008)

Test system: db/db mice
Assay: Antidiabetic effects in db/db mice (serum chemistry after 4 weeks of daily oral dosing)
Format: in vivo
Conditions: for blood glucose, effect in words: versus vehicle; for Triglycerides ± SEM (serum) / Glucose ± SEM (serum glucose) / Free Fatty Acids ± SEM (serum): male obese db/db mice, 100 mg/kg daily oral, treatment for 4 weeks, mean ± SEM; for Triglycerides ± SEM (serum): vehicle 621 ± 54, lean 96.4 ± 6.4; for Glucose ± SEM (serum glucose): vehicle 747 ± 19, lean control 193 ± 11; for Free Fatty Acids ± SEM (serum): vehicle 2415 ± 134, lean 1637 ± 105
Text: Db/db mice have a defect in leptin signaling, leading to hyperphagia, obesity and diabetes. Moreover, unlike ob/ob mice on a C57BL/6J background, db/db mice on a C57BLKS background undergo failure of their insulin-producing pancreatic islet cells, resulting in progression from hyperinsulinemia (associated with peripheral insulin resistance) to hypoinsulinemic diabetes.
Male obese (db/db homozygote) C57B/Ksola mice approximately 8 weeks of age, were obtained from Jackson Labs (Bar Harbor, Me.) and randomly assigned into groups of 5-7 animals such that the body weights (40-45 g) and serum glucose levels (≧300 mg/dl in fed state) were similar between groups; male lean (db/+heterozygote) mice served as cohort controls. A minimum of 7 days was allowed for adaptation after arrival. All animals were maintained under controlled temperature (23° C.), relative humidity (50±5%) and light (7:00-19:00), and allowed free access to standard chow (Formulab Diet 5008, Quality Lab Products, Elkridge, Md.) and water.
Treatment cohorts were given daily oral doses of vehicle, compound CO (100 mg/kg), or Compound CP (100 mg/kg) for 4 weeks. At the end of the treatment period 100 μl of venous blood was withdrawn in a heparinized capillary tube from the retro-orbital sinus for serum chemistry analysis.

[1] = db/db mice, after 4 weeks of daily oral dosing, 100 mg/kg
[2] = db/db mice, after 4 weeks of daily oral dosing, 100 mg/kg, versus vehicle-treated db/db mice

CCOC(=O)CC/C=C/c1cccc(OCc2c(C)cccc2C)c1 [Cpd. CO, 5-[3-(2,6-Dimethylbenzyloxy)-phenyl]-pent-4-enoic acid ethyl ester]
blood glucose, effect in words [1]: significant reduction
serum triglycerides, effect in words [2]: reduced
Triglycerides ± SEM (serum): 320 ± 30 mg/dL
Glucose ± SEM (serum glucose): 651 ± 36 mg/dL
Free Fatty Acids ± SEM (serum): 2689 ± 70 µM

CCOC(=O)CCC/C=C/c1cccc(OCc2c(C)cccc2C)c1 [Cpd. CP, 6-[3-(2,6-Dimethylbenzyloxy)-phenyl]-hex-5-enoic acid ethyl ester]
blood glucose, effect in words [1]: significant reduction
serum free fatty acids, effect in words [2]: reduced
serum triglycerides, effect in words [2]: reduced
Triglycerides ± SEM (serum): 150 ± 34 mg/dL
Glucose ± SEM (serum glucose): 404 ± 101 mg/dL
Free Fatty Acids ± SEM (serum): 1765 ± 39 µM
